Data published in patent publication US20230210831A1, “CHRONIC KIDNEY DISEASE TREATMENT OR PREVENTION METHOD” (Japan Tobacco Inc., priority 2019, published 2023).

Experiments:
Type in all cases: cell-based
[1] = tested on: Salmonella typhimurium TA98; assay: Ames test (reverse mutation test), TA98; details: for Number of revertant colonies: TA98, +S9 mix; for potential to induce reverse mutations: TA98 with S9 mix
Experimental: (§1) The solvent used herein was dimethyl sulfoxide (DMSO, 100 µL/plate).
(§2) The mixtures were preincubated at 37° C. for 20 minutes while shaking. […] Two plates per treatment were used.

[2] = tested on: Escherichia coli WP2uvrA; assay: Ames test (reverse mutation test), WP2uvrA; details: for Number of revertant colonies: WP2uvrA, +S9 mix
Experimental: as §1, §2

[3] = tested on: Salmonella typhimurium TA100; assay: Ames test (reverse mutation test), TA100; details: for Number of revertant colonies: TA100, +S9 mix
Experimental: as §1, §2

[4] = tested on: Salmonella typhimurium TA1535; assay: Ames test (reverse mutation test), TA1535
Experimental: as §1, §2

[5] = tested on: Salmonella typhimurium TA1537; assay: Ames test (reverse mutation test), TA1537; details: for Number of revertant colonies: TA1537, +S9 mix
Experimental: as §1, §2

CC(C)(OCc1cc(F)cc(-c2cc(N)nn2-c2ccc(F)cc2)c1)C(F)(F)F [Metabolite D]
Number of revertant colonies TA98 ([1]; S9 Mix -, dose 2.3 µg/plate): 27 | Number of revertant colonies TA98 ([1]; S9 Mix -, dose 6.9 µg/plate): 22 | Number of revertant colonies TA98 ([1]; S9 Mix -, dose 21 µg/plate): 23 | Number of revertant colonies TA98 ([1]; S9 Mix -, dose 62 µg/plate): 25 | Number of revertant colonies TA98 ([1]; S9 Mix -, dose 185 µg/plate): 32 | Number of revertant colonies TA98 ([1]; S9 Mix -, dose 556 µg/plate): 21 | Number of revertant colonies TA98 ([1]; S9 Mix -, dose 1667 µg/plate): 23 | Number of revertant colonies TA98 ([1]; S9 Mix -, dose 5000 µg/plate): 21 | Number of revertant colonies ([1]; 2.3 µg/plate): 39 | Number of revertant colonies ([1]; 6.9 µg/plate): 42 | Number of revertant colonies ([1]; 21 µg/plate): 52 | Number of revertant colonies ([1]; 62 µg/plate): 47 | Number of revertant colonies ([1]; 185 µg/plate): 49 | Number of revertant colonies ([1]; 556 µg/plate): 51 | Number of revertant colonies ([1]; 1667 µg/plate): 57 | Number of revertant colonies ([1]; 5000 µg/plate): 88 | potential to induce reverse mutations [1]: showed potential to induce reverse mutations | Number of revertant colonies WP2uvrA ([2]; S9 Mix -, dose 2.3 µg/plate): 25 | Number of revertant colonies WP2uvrA ([2]; S9 Mix -, dose 6.9 µg/plate): 27 | Number of revertant colonies WP2uvrA ([2]; S9 Mix -, dose 21 µg/plate): 22 | Number of revertant colonies WP2uvrA ([2]; S9 Mix -, dose 62 µg/plate): 21 | Number of revertant colonies WP2uvrA ([2]; S9 Mix -, dose 185 µg/plate): 22 | Number of revertant colonies WP2uvrA ([2]; S9 Mix -, dose 556 µg/plate): 16 | Number of revertant colonies WP2uvrA ([2]; S9 Mix -, dose 1667 µg/plate): 18 | Number of revertant colonies WP2uvrA ([2]; S9 Mix -, dose 5000 µg/plate): 20 | Number of revertant colonies ([2]; 2.3 µg/plate): 31 | Number of revertant colonies ([2]; 6.9 µg/plate): 18 | Number of revertant colonies ([2]; 21 µg/plate): 24 | Number of revertant colonies ([2]; 62 µg/plate): 18 | Number of revertant colonies ([2]; 185 µg/plate): 23 | Number of revertant colonies ([2]; 556 µg/plate): 32 | Number of revertant colonies ([2]; 1667 µg/plate): 28 | Number of revertant colonies ([2]; 5000 µg/plate): 28 | Number of revertant colonies TA100 ([3]; S9 Mix -, dose 2.3 µg/plate): 99 | Number of revertant colonies TA100 ([3]; S9 Mix -, dose 6.9 µg/plate): 98 | Number of revertant colonies TA100 ([3]; S9 Mix -, dose 21 µg/plate): 71 | Number of revertant colonies TA100 ([3]; S9 Mix -, dose 62 µg/plate): 96 | Number of revertant colonies TA100 ([3]; S9 Mix -, dose 185 µg/plate): 85 | Number of revertant colonies TA100 ([3]; S9 Mix -, dose 556 µg/plate): 86 | Number of revertant colonies TA100 ([3]; S9 Mix -, dose 1667 µg/plate): 69 | Number of revertant colonies TA100 ([3]; S9 Mix -, dose 5000 µg/plate): 82 | Number of revertant colonies ([3]; 2.3 µg/plate): 139 | Number of revertant colonies ([3]; 6.9 µg/plate): 203 | Number of revertant colonies ([3]; 21 µg/plate): 237 | Number of revertant colonies ([3]; 62 µg/plate): 185 | Number of revertant colonies ([3]; 185 µg/plate): 151 | Number of revertant colonies ([3]; 556 µg/plate): 119 | Number of revertant colonies ([3]; 1667 µg/plate): 100 | Number of revertant colonies ([3]; 5000 µg/plate): 98 | Number of revertant colonies TA1535 ([4]; S9 Mix -, dose 1667 µg/plate): 6 | Number of revertant colonies ([4]; TA1535, +S9 mix, 1667 µg/plate): 7 | Number of revertant colonies TA1537 ([5]; S9 Mix -, dose 2.3 µg/plate): 11 | Number of revertant colonies TA1537 ([5]; S9 Mix -, dose 6.9 µg/plate): 13 | Number of revertant colonies TA1537 ([5]; S9 Mix -, dose 21 µg/plate): 11 | Number of revertant colonies TA1537 ([5]; S9 Mix -, dose 62 µg/plate): 7 | Number of revertant colonies TA1537 ([5]; S9 Mix -, dose 185 µg/plate): 6 | Number of revertant colonies TA1537 ([5]; S9 Mix -, dose 556 µg/plate): 7 | Number of revertant colonies TA1537 ([5]; S9 Mix -, dose 1667 µg/plate): 6 | Number of revertant colonies TA1537 ([5]; S9 Mix -, dose 5000 µg/plate): 8 | Number of revertant colonies ([5]; 2.3 µg/plate): 14 | Number of revertant colonies ([5]; 6.9 µg/plate): 20 | Number of revertant colonies ([5]; 21 µg/plate): 13 | Number of revertant colonies ([5]; 62 µg/plate): 18 | Number of revertant colonies ([5]; 185 µg/plate): 15 | Number of revertant colonies ([5]; 556 µg/plate): 15 | Number of revertant colonies ([5]; 1667 µg/plate): 19 | Number of revertant colonies ([5]; 5000 µg/plate): 24 | potential to induce reverse mutations ([5]; TA1537 with S9 mix): showed potential to induce reverse mutations

Nc1cc(-c2cccc(OCC(F)(F)F)c2)n(-c2ccc(F)cc2)n1 [Metabolite E]
Number of revertant colonies TA98 ([1]; S9 Mix +, dose 2.3 µg/plate): 589 | Number of revertant colonies TA98 ([1]; S9 Mix +, dose 6.9 µg/plate): 1310 | Number of revertant colonies TA98 ([1]; S9 Mix +, dose 21 µg/plate): 1001 | Number of revertant colonies TA98 ([1]; S9 Mix +, dose 62 µg/plate): 490 | Number of revertant colonies TA98 ([1]; S9 Mix +, dose 185 µg/plate): 268 | Number of revertant colonies TA98 ([1]; S9 Mix +, dose 556 µg/plate): 77 | Number of revertant colonies TA98 ([1]; S9 Mix +, dose 1667 µg/plate): 15 | Number of revertant colonies TA98 ([1]; S9 Mix +, dose 5000 µg/plate): 12 | Number of revertant colonies TA98 ([1]; S9 Mix -, dose 2.3 µg/plate): 26 | Number of revertant colonies TA98 ([1]; S9 Mix -, dose 6.9 µg/plate): 27 | Number of revertant colonies TA98 ([1]; S9 Mix -, dose 21 µg/plate): 28 | Number of revertant colonies TA98 ([1]; S9 Mix -, dose 62 µg/plate): 32 | Number of revertant colonies TA98 ([1]; S9 Mix -, dose 185 µg/plate): 17 | Number of revertant colonies TA98 ([1]; S9 Mix -, dose 556 µg/plate): 12 | Number of revertant colonies TA98 ([1]; S9 Mix -, dose 1667 µg/plate): 6 | Number of revertant colonies TA98 ([1]; S9 Mix -, dose 5000 µg/plate): 2 | potential to induce reverse mutations [1]: showed potential to induce reverse mutations | Number of revertant colonies WP2uvrA ([2]; S9 Mix +, dose 2.3 µg/plate): 26 | Number of revertant colonies WP2uvrA ([2]; S9 Mix +, dose 6.9 µg/plate): 32 | Number of revertant colonies WP2uvrA ([2]; S9 Mix +, dose 21 µg/plate): 24 | Number of revertant colonies WP2uvrA ([2]; S9 Mix +, dose 62 µg/plate): 30 | Number of revertant colonies WP2uvrA ([2]; S9 Mix +, dose 185 µg/plate): 18 | Number of revertant colonies WP2uvrA ([2]; S9 Mix +, dose 556 µg/plate): 19 | Number of revertant colonies WP2uvrA ([2]; S9 Mix +, dose 1667 µg/plate): 13 | Number of revertant colonies WP2uvrA ([2]; S9 Mix +, dose 5000 µg/plate): 12 | Number of revertant colonies WP2uvrA ([2]; S9 Mix -, dose 2.3 µg/plate): 20 | Number of revertant colonies WP2uvrA ([2]; S9 Mix -, dose 6.9 µg/plate): 26 | Number of revertant colonies WP2uvrA ([2]; S9 Mix -, dose 21 µg/plate): 24 | Number of revertant colonies WP2uvrA ([2]; S9 Mix -, dose 62 µg/plate): 27 | Number of revertant colonies WP2uvrA ([2]; S9 Mix -, dose 185 µg/plate): 22 | Number of revertant colonies WP2uvrA ([2]; S9 Mix -, dose 556 µg/plate): 10 | Number of revertant colonies WP2uvrA ([2]; S9 Mix -, dose 1667 µg/plate): 15 | Number of revertant colonies WP2uvrA ([2]; S9 Mix -, dose 5000 µg/plate): 7 | Number of revertant colonies TA100 ([3]; S9 Mix +, dose 2.3 µg/plate): 1338 | Number of revertant colonies TA100 ([3]; S9 Mix +, dose 6.9 µg/plate): 2032 | Number of revertant colonies TA100 ([3]; S9 Mix +, dose 21 µg/plate): 2016 | Number of revertant colonies TA100 ([3]; S9 Mix +, dose 62 µg/plate): 2320 | Number of revertant colonies TA100 ([3]; S9 Mix +, dose 185 µg/plate): 1799 | Number of revertant colonies TA100 ([3]; S9 Mix +, dose 556 µg/plate): 1082 | Number of revertant colonies TA100 ([3]; S9 Mix +, dose 1667 µg/plate): 182 | Number of revertant colonies TA100 ([3]; S9 Mix +, dose 5000 µg/plate): 157 | Number of revertant colonies TA100 ([3]; S9 Mix -, dose 2.3 µg/plate): 110 | Number of revertant colonies TA100 ([3]; S9 Mix -, dose 6.9 µg/plate): 96 | Number of revertant colonies TA100 ([3]; S9 Mix -, dose 21 µg/plate): 96 | Number of revertant colonies TA100 ([3]; S9 Mix -, dose 62 µg/plate): 101 | Number of revertant colonies TA100 ([3]; S9 Mix -, dose 185 µg/plate): 75 | Number of revertant colonies TA100 ([3]; S9 Mix -, dose 556 µg/plate): 38 | Number of revertant colonies TA100 ([3]; S9 Mix -, dose 1667 µg/plate): 27 | Number of revertant colonies TA100 ([3]; S9 Mix -, dose 5000 µg/plate): 0 | potential to induce reverse mutations ([3]; TA100 with S9 mix): showed potential to induce reverse mutations | Number of revertant colonies TA1535 ([4]; S9 Mix +, dose 1667 µg/plate): 0 | Number of revertant colonies TA1535 ([4]; S9 Mix -, dose 556 µg/plate): 0 | Number of revertant colonies TA1535 ([4]; S9 Mix -, dose 1667 µg/plate): 0 | potential to induce reverse mutations ([4]; TA1535 with S9 mix): showed potential to induce reverse mutations | Number of revertant colonies TA1537 ([5]; S9 Mix +, dose 2.3 µg/plate): 65 | Number of revertant colonies TA1537 ([5]; S9 Mix +, dose 6.9 µg/plate): 227 | Number of revertant colonies TA1537 ([5]; S9 Mix +, dose 21 µg/plate): 180 | Number of revertant colonies TA1537 ([5]; S9 Mix +, dose 62 µg/plate): 102 | Number of revertant colonies TA1537 ([5]; S9 Mix +, dose 185 µg/plate): 85 | Number of revertant colonies TA1537 ([5]; S9 Mix +, dose 556 µg/plate): 0 | Number of revertant colonies TA1537 ([5]; S9 Mix +, dose 1667 µg/plate): 0 | Number of revertant colonies TA1537 ([5]; S9 Mix +, dose 5000 µg/plate): 0 | Number of revertant colonies TA1537 ([5]; S9 Mix -, dose 2.3 µg/plate): 17 | Number of revertant colonies TA1537 ([5]; S9 Mix -, dose 6.9 µg/plate): 20 | Number of revertant colonies TA1537 ([5]; S9 Mix -, dose 21 µg/plate): 16 | Number of revertant colonies TA1537 ([5]; S9 Mix -, dose 62 µg/plate): 11 | Number of revertant colonies TA1537 ([5]; S9 Mix -, dose 185 µg/plate): 3 | Number of revertant colonies TA1537 ([5]; S9 Mix -, dose 556 µg/plate): 0 | Number of revertant colonies TA1537 ([5]; S9 Mix -, dose 1667 µg/plate): 0 | Number of revertant colonies TA1537 ([5]; S9 Mix -, dose 5000 µg/plate): 0 | potential to induce reverse mutations ([5]; TA1537 with S9 mix): showed potential to induce reverse mutations | potential to induce reverse mutations ([5]; TA1537 without S9 mix): showed potential to induce reverse mutations
